Our source for the IC50, viability and Solubility values is patent publication US20220017478A1, “2-BENZOYLAMINOBENZAMIDE DERIVATIVES AS BCL-3 INHIBITORS” (University College Cardiff Consultants Limited, priority 2013, published 2022).

One data set relates to MCF-10A cells. The data set is described as follows: Cell Titre Blue viability assay, MCF-10A. The conditions noted are these: Homo sapiens, 24 hrs, extrapolated with GraphPad, read-out: IC50 cell viability, extrapolated from the dose-response curve. Format: cell-based, human.
Data set [1] is described as follows: Cell Titre Blue viability assay, MCF-10A. The conditions noted are these: human, MCF-10A cells, 1 mM, read-out: cell viability compared to DMSO control (100%). Format: cell-based, human.
Experimental: (§1) The viability of cells at experimental endpoints for particular assays was determined using the Cell Titre Blue reagent (Promega, Southampton, UK). This reagent measures the cellular metabolic activity using resazurin as an indicator dye. Viable cells, therefore metabolically active, will reduce resazurin into highly fluorescent resofurin. The resulting fluorescence levels are measured and indicate cell viability.
(§2) Cells were plated at low confluency into 96 well plates in 100 μl of complete growth media in triplicates and were incubated at 37° C. in 5% CO2 for the desired test exposure period. For each 100 μl of media in 96 well plates, 20 μl Cell Titre Blue reagent was added followed by incubation for an hour at 37° C. in 5% CO2. Fluorescence was then measured by setting excitation/emission wavelengths to 560/590 nm on a Flurostar Optima plate reader (BMG tabtech, Bucks, UK).
(§3) To compare the toxicity in tumorigenic as well as in non-tumorigenic breast cancer cells, we selected MCF-10A as a non-tumorigenic human breast cancer cell line and MDA-MB-231 and SKBR3 as cell models of tumorigenic human breast cancer cell line.
(§4) Cell toxicity was evaluated using the Cell Titre Blue viability assay over a range of molarities for 24 hrs.
A further data set has as its system MDA-MB-231 cells. The data set is described as follows: Cell Titre Blue viability assay, MDA-MB-231. The note with it: Homo sapiens, MDA-MB-231, 24 h, read-out: IC50 cell viability, extrapolated from the dose-response curve.
The nature of data set [2]: Solubility in commonly used solvents and PBS. Format: physicochemical. Here is the method: We established that the solubility of Compound 1a in most commonly used solvents is very low (Table 2) which represents an issue for biological evaluation. Therefore a hydrochloric salt of Compound 1a was synthesised and the solubility was analyzed. The obtained salt had improved solubility in water and methanol (Table 2), however it was not soluble (<0.1 g/100 ml) in Phosphate Buffered Saline (PBS). PBS is a water-based salt solution containing sodium chloride, sodium phosphate, potassium chloride and potassium phosphate, while the buffer's phosphate groups help to maintain a constant pH. PBS is non-toxic and is commonly used as an isotonic buffered solution for cell-based assays and animal studies.

Where two headings read alike, the source gives them in different places.

Experimental for MCF-10A cells: as §1, §2, §3, §4
Experimental for MDA-MB-231 cells: as §1, §2, §4
Selected compounds were dissolved in DMSO and diluted to a highest concentration of 10 μM (0.1% DMSO). In all assays, a DMSO control was always used. Selected compounds were tested for cell toxicity in HEK-293 and MDA-MB-231 cells before being used in cell-based assays. Cell toxicity was evaluated using the Cell Titre Blue viability assay over a range of molarities for 24 hrs

For the compound `O=C(Nc1ccccc1C(=O)NCCN1CCOCC1)c1ccccc1F` [Compound 1a, 2-[(2-fluorobenzoyl)amino]-N-(2-morpholin-4-ylethyl)benzamide], the IC50 in the data set on MCF-10A cells was 14.9 mM; with MDA-MB-231 cells it was 2.7 mM. Besides, the viability at 24 h, 1000 µM in data set [1] amounted to 96%. The Solubility in data set [2] (DMSO) turned out to be 3.71 g/100 ml; in data set [2] (Dichloromethane), 2.91 g/100 ml; in data set [2] (Diethyl ether), 0.09 g/100 ml; in data set [2] (Ethanol), 0.09 g/100 ml; in data set [2] (Ethyl acetate), 0.34 g/100 ml; in data set [2] (Methanol) it was 0.20 g/100 ml. The Solubility in data set [2] (water, read-out: Solubility) is under 100 µg/mL.

Broadly, the IC50 is the point on the concentration scale where inhibition reaches its midpoint. A word on the viability: it is a read-out of living cells in per cent, often relative to untreated cells.
